Article PMC12621202, “RTx-303, an Orally Bioavailable Polθ Polymerase Inhibitor That Potentiates PARP Inhibitors in BRCA Mutant Tumors” (Journal of Medicinal Chemistry, 2025)
“And” between values parts separate entries of the source, which are not always exact repeats. Identical values can stand only once. Like-named read-outs stand apart in the source and are kept apart here.

Key:
[1] = test system: BRCA2^-/- HCT116; assay: Clonogenic (colony) survival assay; format: cell-based, human; conditions: for IC50: Homo sapiens; for fold lower IC50 in BRCA2–/– HCT116 cells compared to RTx-161 / selectivity against BRCA2–/– versus BRCA+/+ HCT116 cells: clonogenic survival
Description: (§1) Colony survival assays were performed on 24-well plates. 800 cells/well of HCT, DLD1- BRCA2 −/–, PALB2 −/–, MEF BRCA1 […], PEO1, SNU-601, SKOV3- BRCA2 −/–, OVCAR8 cells and 200 cells/well of HCT, DLD1, MEF, SKOV3 wildtype cells were plated. For MDA pair, 500 cells/well of MDA436 and 100 cells of MDA231 were plated. Cells were treated with the compound 24 h after plating and the medium was replaced every two or 3 days until the colonies were ready for staining. Colonies were typically ready for staining in 10–12 days. For staining: Medium was removed from plates, and cells were rinsed with PBS. Fixation was carried out with Water:Ethanol:Acetic acid (5:4:1) for 30 min followed by staining of colonies with 0.5% crystal violet in Water:Ethanol (3:2) for 2 h at room temperature. The plates were rinsed with water and left for drying overnight at room temperature. Colonies were then counted manually, and response curves are shown as mean colony formation ± SEM. IC50 was calculated with GraphPad Prism using nonlinear regression analysis, inhibitor vs response (variable slope) equation.

[2] = Liver microsome stability; format: in vitro ADME
Description: Liver microsome membranes stability assay. Assays were conducted in 96-well (1 mL) polypropylene plates. In duplicate, test compounds (1 μM) were incubated in 0.5 mL of 100 mM potassium phosphate buffer (pH 7.4) with 0.5 mg/mL pooled liver microsomes from the test species (Gibco; mouse, CD1, male, MSMCPL; rat, Sprague-Dawley, male, RTMCPL; dog, Beagle, male, DGMCPL; human, mixed gender, HMMCPL), 2 mM tetrasodium NADPH and 3 mM MgCl2 for 60 min in a Labnet Vortemp incubator at 37 °C with gentle shaking. At five time points, […] of reaction mixtures were transferred to a 96-shallow-well stop plate on ice containing […] acetonitrile with 0.05 mM propafenone (internal standard). […] Verapamil was the positive reference compound (typical T1/2 = 3 min). Standard curves for test compounds were generated using 5 concentrations in duplicate. Stop plates were centrifuged at 2270 × g for 10 min and […] of the supernatants were transferred to a Waters Acquity UPLC […] 96-well sample plate, sealed with a cap mat and analyzed by UPLC/MS as described. GraphPad Prism v 5.04 was used for nonlinear fitting of time course data to generate T1/2 (min) and in vitro Clint (μL/min/mg) values.

[3] = test system: BRCA2^+/+ HCT116; assay: Clonogenic (colony) survival assay; format: cell-based; conditions: Homo sapiens
Description: as §1

[4] = Pharmacokinetics in CD-1 mice; format: in vivo; conditions: for bioavailability / Cmax / Tmax / AUC(0-t) / half-life: male, mouse, plasma; for AUC(0-t): read-out: AUClast (PO); for half-life: read-out: T1/2 (PO) (converted)
Description: For the pharmacokinetics study, CD-1 male mice (6–8 weeks) were dosed by IV or PO at the indicated concentrations of the indicated compounds dissolved in 5% DMSO, 5% ethanol, 20% TPGS, 30% PEG400, 40% water. Plasma samples were collected at the indicated time points and the indicated compound levels were determined by using standard protocols with a calibration curve and LC/MS. The pharmacokinetic studies was carried out by Pharmaron.

[5] = Hepatocyte stability; format: in vitro ADME; conditions: cryopreserved hepatocytes
Description: Hepatocyte stability assays. Cryopreserved mouse hepatocytes (24 donors, male CD1 mice; Xenotech product M1000.H15+) or human hepatocytes (100 donors; mixed gender; Xenotech product HCP100.H15) were rapidly thawed, diluted with Optithaw (Xenotech product K8500) and centrifuged 5 min at 100 × g. The resuspended cells were stained with 0.016% Trypan Blue and counted. Cell viability was >80%. 0.25 mL of a 1 × 10^6 viable cells/ml cell suspension was added to 16 mm diameter wells of an uncoated polystyrene plate. The prewarmed plate was placed in a 37 °C incubator with 5% CO2 atm with 100 oscillations/min shaking. After 5 min, 0.25 mL of 2 μM test compound in prewarmed HBSS was added per well and mixed to start the reactions with duplicate reactions per compound. Verapamil as the positive control and cell-free reactions were negative controls. At each time point (0, 2, 5, 10, 30, 60, and 120 min), 50 μL aliquots were transferred to a 96-well stop plate containing 150 μL/well of acetonitrile, 0.1% formic acid and 0.1 μM propafenone. The plate was centrifuged for 10 min at 2300 × g. 150 μL of the supernatant was transferred to a mass spect sample plate. Samples were analyzed by UPLC/MS as described. Results were expressed as T1/2 (min) and in vitro Clint (μL/min/10^6 cells). CLint (μL/min/10^6 cells) estimates were determined using a modified method of McGinnity et al.

[6] = HCT-116, read-out: IC50 BRCA2^-/- HCT116 (μM)
[7] = both sexes, pH 7.4, human liver microsomes, read-out: T1/2 human liver microsomes
[8] = male, Beagle, pH 7.4, dog liver microsomes, read-out: T1/2 dog liver microsomes
[9] = male, CD1, pH 7.4, mouse liver microsomes, read-out: T1/2 mouse liver microsomes
[10] = male, Sprague-Dawley, pH 7.4, rat liver microsomes, read-out: T1/2 rat liver microsomes
[11] = HCT-116, read-out: IC50 BRCA2^+/+ HCT116 (μM)
[12] = mouse (CD1, male) hepatocytes, read-out: T1/2 mouse hepatocytes
[13] = both sexes, pH 7.4, human liver microsomes, read-out: Clint (uL/min/ mg) human
[14] = male, CD1, pH 7.4, mouse liver microsomes, read-out: Clint (uL/min /mg) mouse
[15] = both sexes, human hepatocytes, mixed gender, read-out: Human* (T1/2 min)

For `[2H]C([2H])([2H])N(C(=O)Oc1c(N2CCN(CC(O)CNC)C2=O)cc(C(F)(F)F)cc1C(F)(F)F)c1ccc(F)cc1` (centres unmarked) [RTx-283, 2-(3-(2-Hydroxy-3-(methylamino)propyl)-2-oxoimidazolidin-1-yl)-4,6-bis(trifluoromethyl)phenyl (4-fluorophenyl)(methyl-d3)carbamate], the IC50 [1, 6] was 0.03 µM, the “fold lower IC50 in BRCA2–/– HCT116 cells compared to RTx-161” value [1] was > 10 fold and the “selectivity against BRCA2–/– versus BRCA+/+ HCT116 cells” value [1] was > 100 fold. For the same compound, the half-life at 1 μM [2, 7] was > 56 min, the half-life at 1 μM [2, 8] was 24.4 min and the half-life at 1 μM [2, 9] was 44.8 min. For the same compound, the half-life at 1 μM [2, 10] was > 60 min, the IC50 [3, 11] was 16.3 µM and the bioavailability ([4]; 5 mg/kg IV, 15 mg/kg PO (n=3)) was 44.3%. The Cmax ([4]; 15 mg/kg PO (n=3)) was 453 ng/mL, the Tmax ([4]; 15 mg/kg PO (n=3)) was 30 min and the AUC(0-t) ([4]; 15 mg/kg PO (n=3)) was 2370 ng·h/mL. For the same compound, the half-life ([4]; 15 mg/kg PO (n=3)) was 269 min and the half-life at 1 μM [5, 12] was 48.8 min.
For `[2H]C([2H])([2H])N(C(=O)Oc1c(N2CCN(CC(O)CN(C)C)C2=O)cc(C(F)(F)F)cc1C(F)(F)F)c1ccc(F)cc1` (centres unmarked) [RTx-284, 2-{3-[3-(Dimethylamino)-2-hydroxypropyl]-2-oxoimidazolidin-1-yl}-4,6-bis(trifluoromethyl)phenyl N-(4-fluorophenyl)-N-(methyl-d3)-carbamate], the IC50 [1, 6] was 0.11 µM, the “fold lower IC50 in BRCA2–/– HCT116 cells compared to RTx-161” value [1] was > 10 fold and the “selectivity against BRCA2–/– versus BRCA+/+ HCT116 cells” value [1] was > 100 fold. It also gave a half-life at 1 μM [2, 7] of 15.2 min, a half-life at 1 μM [2, 8] of 7.4 min and a half-life at 1 μM [2, 9] of 8 min. For the same compound, the half-life at 1 μM [2, 10] was > 54 min, the IC50 [3, 11] was > 12 µM and the bioavailability ([4]; 5 mg/kg IV, 15 mg/kg PO (n=3)) was 100% and 103%. For the same compound, the bioavailability ([4]; 15 mg/kg IV, 50 mg/kg PO (n=3)) was 99%, the Cmax ([4]; 15 mg/kg PO (n=3)) was 659 ng/mL and the Tmax ([4]; 15 mg/kg PO (n=3)) was 79.8 min. It also gave an AUC(0-t) ([4]; 15 mg/kg PO (n=3)) of 5930 ng·h/mL, a half-life ([4]; 15 mg/kg PO (n=3)) of 146 min and a Cmax ([4]; 50 mg/kg PO (n=3)) of 2750 ng/mL. The Tmax ([4]; 50 mg/kg PO (n=3)) was 120 min, the AUC(0-t) ([4]; 50 mg/kg PO (n=3)) was 30700 ng·h/mL and the half-life ([4]; 50 mg/kg PO (n=3)) was 199 min. The half-life at 1 μM [5, 12] was 19.2 min.
Compound `[2H]C([2H])([2H])N(C(=O)Oc1c(N2CCN(C[C@H](O)CN(C)C)C2=O)cc(C(F)(F)F)cc1C(F)(F)F)c1ccc(F)cc1` [RTx-303] has an IC50 ([1]; HCT-116, read-out: IC50(nM) HCT116 BRCA2 –/–) of 0.0812 µM, a microsomal CLint at 1 μM [2, 13] of 213 µL/min/mg and a half-life at 1 μM [2, 7] of 7.3 min. The microsomal CLint at 1 μM [2, 14] was 204 µL/min/mg, the half-life at 1 μM [2, 9] was 7.1 min and the IC50 ([3]; HCT-116, read-out: IC50(nM) HCT116 BRCA2 +/+) was > 1.28 µM. The bioavailability ([4]; 15 mg/kg IV, 50 mg/kg PO (n=3)) was 88% and 88.1%, the Cmax ([4]; 50 mg/kg PO (n=3)) was 2640 ng/mL and the Tmax ([4]; 50 mg/kg PO (n=3)) was 198 min. For the same compound, the AUC(0-t) ([4]; 50 mg/kg PO (n=3)) was 30200 ng·h/mL, the half-life ([4]; 50 mg/kg PO (n=3)) was 156 min and the “Avg. free unbound exposure” value ([4]; parent compound, 50 mg/kg PO (n=3)) was 86 nM/h. The half-life at 1 μM [5, 15] was 60 min and the half-life at 1 μM [5, 12] was 24.7 min.
With `[2H]C([2H])([2H])N(C(=O)Oc1c(N2CCN(C[C@H](O)CNC)C2=O)cc(C(F)(F)F)cc1C(F)(F)F)c1ccc(F)cc1` [RTx-315] the microsomal CLint at 1 μM [2, 13] was < 23 µL/min/mg, the half-life at 1 μM [2, 7] was > 60 min and the microsomal CLint at 1 μM [2, 14] was 39.1 µL/min/mg. The half-life at 1 μM [2, 9] was 36.3 min, the half-life at 1 μM [5, 15] was 56.2 min and the half-life at 1 μM [5, 12] was 68.7 min.
